The supplement of paper PMC13380429

Assays:
Settings in all cases: 72 h
Caco-2 [1] = assay: cell viability relative to DMSO; higher = less toxic
HepG2 [2] = assay: as above
Calu-3 [3] = assay: as above
U2OS [4] = assay: as above
Vero E6 [5] = assay: as above
Caco-2 [6] = assay: relative viability EC50 (midpoint between 100% and the lowest measured viability); higher = less toxic
HepG2 [7] = assay: as above
Calu-3 [8] = assay: as above
U2OS [9] = assay: as above
Vero E6 [10] = assay: as above
Caco-2 [11] = assay: drug sensitivity score (DSS) for viability; higher = more toxic; extreme values may be limits of the assay
HepG2 [12] = assay: as above
Calu-3 [13] = assay: as above
U2OS [14] = assay: as above
Vero E6 [15] = assay: as above

Row | Compound | cell viability (Caco-2 [1]; 1 nM) | cell viability (Caco-2 [1]; 10 nM) | cell viability (Caco-2 [1]; 100 nM) | cell viability (Caco-2 [1]; 1000 nM) | cell viability (Caco-2 [1]; 10000 nM) | cell viability (HepG2 [2]; 1 nM) | cell viability (HepG2 [2]; 10 nM) | cell viability (HepG2 [2]; 100 nM) | cell viability (HepG2 [2]; 1000 nM) | cell viability (HepG2 [2]; 10000 nM) | cell viability (Calu-3 [3]; 1 nM) | cell viability (Calu-3 [3]; 10 nM) | cell viability (Calu-3 [3]; 100 nM) | cell viability (Calu-3 [3]; 1000 nM) | cell viability (Calu-3 [3]; 10000 nM) | cell viability (U2OS [4]; 1 nM) | cell viability (U2OS [4]; 10 nM) | cell viability (U2OS [4]; 100 nM) | cell viability (U2OS [4]; 1000 nM) | cell viability (U2OS [4]; 10000 nM) | cell viability (Vero E6 [5]; 1 nM) | cell viability (Vero E6 [5]; 10 nM) | cell viability (Vero E6 [5]; 100 nM) | cell viability (Vero E6 [5]; 1000 nM) | cell viability (Vero E6 [5]; 10000 nM) | relative viability EC50 (Caco-2 [6]) | relative viability EC50 (HepG2 [7]) | relative viability EC50 (Calu-3 [8]) | relative viability EC50 (U2OS [9]) | relative viability EC50 (Vero E6 [10]) | drug sensitivity score (Caco-2 [11]) | drug sensitivity score (HepG2 [12]) | drug sensitivity score (Calu-3 [13]) | drug sensitivity score (U2OS [14]) | drug sensitivity score (Vero E6 [15])
1 | CC(=O)N[C@@H](CC(=O)O)C(=O)N[C@@H](CCC(=O)O)C(=O)O [spaglumic-acid] | 105% | 98.1% | 101% | 94.6% | 101% | 101% | 108% | 91.5% | 114% | 95.5% | 89.7% | 93.3% | 100% | 97.2% | 105% | 101% | 96.2% | 104% | 102% | 102% | 93.6% | 105% | 101% | 102% | 100% | > 10 µM | > 10 µM | > 10 µM | > 10 µM | > 10 µM | 0 | 0 | 0 | 0 | 0
2 | CCOC(=O)[C@H](CCc1ccccc1)N[C@@H](C)C(=O)N1Cc2cc(OC)c(OC)cc2C[C@H]1C(=O)O [moexipril] | 106% | 96% | 101% | 89.3% | 98.2% | 95.8% | 98.6% | 96% | 95.5% | 92.2% | 97% | 97% | 107% | 111% | 104% | 96% | 102% | 92.8% | 100% | 95.7% | 96.2% | 102% | 96.6% | 96.9% | 102% | > 10 µM | > 10 µM | > 10 µM | > 10 µM | > 10 µM | 0 | 0 | 0 | 0 | 0
3 | C[C@H](C[C@H](N)C(=O)O)C(=O)O [SYM-2081] | 103% | 96% | 105% | 97.5% | 98.4% | 104% | 88.4% | 91.9% | 96.6% | 93.8% | 102% | 88.4% | 96.6% | 95.3% | 102% | 100% | 97.5% | 100% | 97.7% | 106% | 101% | 102% | 95.1% | 104% | 93.4% | > 10 µM | > 10 µM | > 10 µM | > 10 µM | > 10 µM | 0 | 0 | 0 | 0 | 0
4 | NC(CO)C(=O)NNCc1ccc(O)c(O)c1O (stereo not given) [benserazide] | 95.7% | 99% | 81.6% | 97.8% | 87.9% | 80.5% | 97.4% | 104% | 85% | 94.5% | 88.9% | 89.8% | 95.7% | 96.2% | 92.2% | 96.8% | 101% | 93% | 99.8% | 94% | 115% | 99.8% | 106% | 97% | 106% | > 10 µM | > 10 µM | > 10 µM | > 10 µM | > 10 µM | 0 | 0 | 0 | 0 | 0
5 | C[C@]12CC[C@H]3[C@@H](CCC4=CC(=O)CC[C@@]43C)[C@@H]1CC[C@@H]2C(=O)CO [desoxycortone] | 100% | 101% | 102% | 97% | 87.4% | 101% | 95.8% | 97% | 87.1% | 104% | 98.5% | 95.1% | 91.5% | 105% | 95.8% | 103% | 99.2% | 97.1% | 97.6% | 95.4% | 101% | 99.2% | 93.6% | 95.8% | 101% | > 10 µM | > 10 µM | > 10 µM | > 10 µM | > 10 µM | 0.2 | 0 | 0 | 0 | 0
6 | NC(=O)Cc1cccc(C(=O)c2ccccc2)c1N [nepafenac] | 96.6% | 94.9% | 90.7% | 102% | 90.7% | 116% | 94.8% | 100% | 99.9% | 105% | 101% | 97.9% | 95.6% | 95.3% | 97.9% | 99.5% | 102% | 94.5% | 98.8% | 93.5% | 106% | 104% | 106% | 99.3% | 102% | > 10 µM | > 10 µM | > 10 µM | > 10 µM | > 10 µM | 0 | 0 | 0 | 0 | 0
7 | Cl/C(=C\n1cncn1)c1ccc(Cl)cc1Cl [loreclezole] | 91.1% | 92.8% | 94.6% | 95% | 104% | 96.5% | 98.9% | 104% | 90% | 87.7% | 100% | 94.7% | 105% | 113% | 97.6% | 95.9% | 100% | 96% | 99.7% | 108% | 101% | 102% | 98.8% | 101% | 96.2% | > 10 µM | > 10 µM | > 10 µM | > 10 µM | > 10 µM | 0 | 0.5 | 0 | 0 | 0
8 | CC(C)c1nc(CN(C)C(=O)N[C@H](C(=O)N[C@@H](Cc2ccccc2)C[C@H](O)[C@H](Cc2ccccc2)NC(=O)OCc2cncs2)C(C)C)cs1 [ritonavir] | 97.8% | 94.3% | 96.3% | 100% | 77.5% | 98.6% | 104% | 94% | 107% | 110% | 102% | 87% | 93.7% | 102% | 98.6% | 105% | 97.5% | 98% | 94.5% | 95.4% | 94.4% | 97.5% | 89.4% | 102% | 108% | > 10 µM | > 10 µM | > 10 µM | > 10 µM | > 10 µM | 0.8 | 0 | 0 | 0 | 0
9 | CN(Cc1cc(Br)cc(Br)c1N)C1CCCCC1 [bromhexine] | 96.2% | 109% | 100% | 97.9% | 94.6% | 99.2% | 108% | 107% | 97.9% | 108% | 92% | 90.7% | 95.1% | 90.9% | 95.4% | 98.9% | 105% | 96.3% | 99.5% | 98.2% | 110% | 97.9% | 106% | 102% | 103% | > 10 µM | > 10 µM | > 10 µM | > 10 µM | > 10 µM | 0 | 0 | 0 | 0 | 0
10 | CN(C)c1ccc(/C=C2\CCCN=C2c2cccnc2)cc1 [DMAB-anabaseine] | 103% | 107% | 103% | 120% | 76.2% | 109% | 90.2% | 98.2% | 99.7% | 87.4% | 101% | 109% | 139% | 105% | 88.8% | 94.2% | 96.4% | 97.4% | 94.4% | 93.6% | 105% | 92.4% | 99.3% | 93.5% | 91.5% | > 10 µM | > 10 µM | > 10 µM | > 10 µM | > 10 µM | 0.4 | 0.1 | 0 | 0 | 0
11 | C/C(=N\c1ccccc1N)c1c(C)cc(=O)n(O)c1O [SUN-B-8155] | 102% | 105% | 99.4% | 103% | 96.2% | 101% | 104% | 102% | 99.7% | 77.3% | 110% | 115% | 91.8% | 104% | 110% | 97.3% | 104% | 98.9% | 99.7% | 96.3% | 101% | 104% | 101% | 98.6% | 104% | > 10 µM | > 10 µM | > 10 µM | > 10 µM | > 10 µM | 0 | 0.8 | 0 | 0 | 0
12 | CC(C)(CO)c1cc2cc(NC(=O)C3(c4ccc5c(c4)OC(F)(F)O5)CC3)c(F)cc2n1C[C@@H](O)CO [tezacaftor] | 101% | 98.1% | 96.3% | 89.1% | 98.8% | 113% | 102% | 94.1% | 97.2% | 96.3% | 101% | 96.8% | 104% | 104% | 106% | 99.2% | 96.7% | 101% | 97.7% | 93.2% | 90.3% | 98.2% | 92.4% | 94.6% | 93.1% | > 10 µM | > 10 µM | > 10 µM | > 10 µM | > 10 µM | 0 | 0 | 0 | 0 | 0
13 | CCc1nn(CCO)c(CC)c1Oc1cc(C#N)cc(C#N)c1 [lersivirine] | 109% | 95.8% | 97.9% | 98.8% | 105% | 92.1% | 110% | 94.7% | 95.9% | 105% | 102% | 99.4% | 107% | 114% | 104% | 100% | 97.6% | 95.7% | 102% | 102% | 96.8% | 95.6% | 97.5% | 90.8% | 100% | > 10 µM | > 10 µM | > 10 µM | > 10 µM | > 10 µM | 0 | 0 | 0 | 0 | 0
14 | CCCCC[C@H](O)/C=C/[C@H]1[C@H](O)CC(=O)[C@@H]1C/C=C\CCCC(=O)O [dinoprostone] | 101% | 104% | 101% | 102% | 95.2% | 99.8% | 104% | 90.4% | 103% | 99% | 96.3% | 90% | 90.2% | 94% | 94.8% | 101% | 98.2% | 102% | 98.5% | 98.3% | 101% | 107% | 101% | 103% | 94.9% | > 10 µM | > 10 µM | > 10 µM | > 10 µM | > 10 µM | 0 | 0 | 0 | 0 | 0
